Test system: hESCs
Experiment: Microarray analysis of hESCs grown 36 h in CDM alone or CDM plus BMP4
Assay type: cell-based, human
Conditions: hESCs 36 h, CDM plus 10 ng/ml BMP4 vs CDM alone
Source text: The change in RNA expression of genes associated with particular cell types is indicated in the following panels. […] In all tables, the ‘margin’ value represents the fold change in mRNA expression (log 2 scale) with a negative value indicating down regulation after BMP4 treatment compared to CDM alone.
Sample RNA was hybridized to Affymetrix hg-u133+2 GeneChips ©. All sample arrays were background corrected, normalized and summarized using default parameters of the RMA model. Array processing was performed using the affy package of the Bioconductor (found on the world wide web at the hypertext protocol transfer address of “bioconductor.org”) suite of software for the R statistical programming language (found on the world wide web at the hypertext protocol transfer address of “r-project.org”). The resulting data set contained processed gene expression values for 54675 probe-sets. Analysis of Differential Regulation: The moderated t-statistic […], implemented in the Limma package of Bioconductor, was employed to assess the significance of differential gene (probe-set) expression between sample groups. In order to reduce errors associated with multiple hypothesis testing on such a scale, the significance p-values obtained were converted to corrected q-values using the FDR method.
Data Visualisation: Heat maps of gene expression were created by importing relevant subsets of RMA processed microarray gene expression data into the dChip v1.3 microarray analysis package (found on the world wide web at the hypertext protocol transfer address of “biostat.harvard.edu/complab/dchip/”). In the case wherein a gene is represented by more than one probe-set on the array, a single probe-set was chosen to represent gene expression in the heat map according to highest mean expression over all samples (i.e. the most reliable sample hybridization regardless of group membership).

BMP4: Bone Morphogenetic Protein 4 growth factor
Margin, ACTC mRNA: 4.16 log 2 scale | Margin, ADRA2A mRNA: −2.49 log 2 scale | Margin, AGTRL1 mRNA: 4.35 log 2 scale | Margin, AK3 mRNA: −2.55 log 2 scale | Margin, ARGBP2 mRNA: −3.43 log 2 scale | Margin, BAMBI mRNA: 3.86 log 2 scale | Margin, C2orf31 mRNA: −2.72 log 2 scale | Margin, C10orf13 mRNA: −2.63 log 2 scale | Margin, C14orf29 mRNA: −2.44 log 2 scale | Margin, CACNA2D3 mRNA: −2.42 log 2 scale | Margin, CDH11 mRNA: 3.81 log 2 scale | Margin, CFC1 mRNA: 4.45 log 2 scale | Margin, CHST9 mRNA: −2.54 log 2 scale | Margin, CLIC5 mRNA: 5.04 log 2 scale | Margin, COL3A1 mRNA: 4.47 log 2 scale | Margin, CRH mRNA: 5.13 log 2 scale | Margin, CUZD1 mRNA: −2.4 log 2 scale | Margin, CYP26A1 mRNA: −2.51 log 2 scale | Margin, D21S2088E mRNA: −2.67 log 2 scale | Margin, DIO2 mRNA: 4.29 log 2 scale | Margin, DKK4 mRNA: −3.09 log 2 scale | Margin, DLX2 mRNA: 6.43 log 2 scale | Margin, DLX5 mRNA: 4.04 log 2 scale | Margin, DLX6 mRNA: 4.66 log 2 scale | Margin, EFNA1 mRNA: 4.35 log 2 scale | Margin, EPAS1 mRNA: 6.2 log 2 scale | Margin, ETV1 mRNA: −2.49 log 2 scale | Margin, FLJ25477 mRNA: 4.77 log 2 scale | Margin, FLJ90231 mRNA: −3.15 log 2 scale | Margin, FOXA2 mRNA (splice variant): −3.38 log 2 scale | Margin, FOXF1 mRNA: 4.84 log 2 scale | Margin, GABRP mRNA: 7.34 log 2 scale | Margin, GATA3 mRNA: 6.21 log 2 scale | Margin, GATA5 mRNA: 4 log 2 scale | Margin, GDF3 mRNA: −3.47 log 2 scale | Margin, GPR64 mRNA: −2.46 log 2 scale | Margin, H19 mRNA: 3.98 log 2 scale | Margin, HAND1 mRNA: 7.27 log 2 scale | Margin, HAPLN1 mRNA: 8.04 log 2 scale | Margin, HESX1 mRNA: −2.36 log 2 scale | Margin, HEY1 mRNA: 3.93 log 2 scale | Margin, HHEX mRNA: −2.58 log 2 scale | Margin, HOXB6 mRNA: 5.19 log 2 scale | Margin, ID4 mRNA: 5.47 log 2 scale | Margin, IGFBP3 mRNA: 4.44 log 2 scale | Margin, IPO9 mRNA: −2.83 log 2 scale | Margin, ISL1 mRNA: 6.5 log 2 scale | Margin, KAL1 mRNA: −2.98 log 2 scale | Margin, KCND2 mRNA: −2.74 log 2 scale | Margin, KCTD12 mRNA: 4.01 log 2 scale | Margin, KIAA0882 mRNA: 3.81 log 2 scale | Margin, KLF4 mRNA: −2.4 log 2 scale | Margin, KRT7 mRNA: 3.91 log 2 scale | Margin, LCK mRNA: −2.65 log 2 scale | Margin, LECT1 mRNA: −2.55 log 2 scale | Margin, LEFTY1 mRNA: −6.56 log 2 scale | Margin, LEFTY2 mRNA: −3.12 log 2 scale | Margin, LIX1 mRNA: 4.3 log 2 scale | Margin, LOC152573 mRNA: −5.04 log 2 scale | Margin, LOC153469 mRNA: −4.72 log 2 scale | Margin, LOC387763 mRNA: 4.25 log 2 scale | Margin, LRAT mRNA: −4.97 log 2 scale | Margin, LRIG1 mRNA: −2.82 log 2 scale | Margin, LUM mRNA: 5.88 log 2 scale | Margin, MAL2 mRNA: −2.37 log 2 scale | Margin, MEGF10 mRNA: −3.14 log 2 scale | Margin, MEIS1 mRNA: 4.02 log 2 scale | Margin, MESP1 mRNA: 4.03 log 2 scale | Margin, MGC26963 mRNA: −4.02 log 2 scale | Margin, MSX1 mRNA: 4.28 log 2 scale | Margin, MSX2 mRNA: 5.43 log 2 scale | Margin, MYOCD mRNA: 4.49 log 2 scale | Margin, NANOG mRNA: −3.22 log 2 scale | Margin, NCRMS mRNA: −2.98 log 2 scale | Margin, NFE2L3 mRNA: −2.74 log 2 scale | Margin, NODAL mRNA: −2.93 log 2 scale | Margin, NOG mRNA: 4.37 log 2 scale | Margin, OLIG3 mRNA: −3.9 log 2 scale | Margin, OTX2 mRNA: −4.89 log 2 scale | Margin, PAPLN mRNA: −3.53 log 2 scale | Margin, PARG1 mRNA: 4.04 log 2 scale | Margin, PIPOX mRNA: −2.58 log 2 scale | Margin, POSTN mRNA: 5.83 log 2 scale | Margin, PPP2R2B mRNA: −3.6 log 2 scale | Margin, PRKD1 mRNA: 3.91 log 2 scale | Margin, PRSS12 mRNA: 4.09 log 2 scale | Margin, PTPRZ1 mRNA: −2.37 log 2 scale | Margin, RAM2 mRNA: −2.8 log 2 scale | Margin, RET mRNA: −2.97 log 2 scale | Margin, RGS4 mRNA: 3.85 log 2 scale | Margin, RGS5 mRNA: 4.46 log 2 scale | Margin, RGS13 mRNA: 4.42 log 2 scale | Margin, SEMA3C mRNA: 3.89 log 2 scale | Margin, SFRP1 mRNA: −2.36 log 2 scale | Margin, SFRP2 mRNA: −2.75 log 2 scale | Margin, SLC1A6 mRNA: −2.39 log 2 scale | Margin, SLC16A4 mRNA: 4 log 2 scale | Margin, SLC40A1 mRNA: 4.19 log 2 scale | Margin, SNAI2 mRNA: 4.92 log 2 scale | Margin, SOCS3 mRNA: 3.98 log 2 scale | Margin, SOX2 mRNA: −3.64 log 2 scale | Margin, SOX7 mRNA: 4.13 log 2 scale | Margin, SYNPO2 mRNA: 4.46 log 2 scale | Margin, TBX3 mRNA: 6.42 log 2 scale | Margin, TFAP2A mRNA: 4.98 log 2 scale | Margin, TFCP2L2 mRNA: 3.87 log 2 scale | Margin, TFCP2L4 mRNA: 4.92 log 2 scale | Margin, THBS2 mRNA: −3.73 log 2 scale | Margin, TIMP4 mRNA: −2.9 log 2 scale | Margin, TMEM46 mRNA: −3.57 log 2 scale | Margin, TOX mRNA: −3.03 log 2 scale | Margin, TRIM55 mRNA: 4.24 log 2 scale | Margin, TRPC4 mRNA: −2.52 log 2 scale | Margin, UGT8 mRNA: −3.57 log 2 scale | Margin, USP44 mRNA: −3.63 log 2 scale | Margin, UTF1 mRNA: −2.47 log 2 scale

Reference: US8323971B2, “Differentiation of pluripotent cells into primary germ layer progenitors” (Cambridge Enterprise Limited, priority 2006, dated 2012)
